Results as given in patent US9522187B2, “Cancer therapy using beta glucan and antibodies” (University of Louisville Research Foundation, Inc., priority 2002, dated 2016).
One block for each substance: values may come before it.

Key:
CR3 [1] = biological target: T1, CR3 (Homo sapiens, UniProt P11215); assay: Inhibition of SZP-FITC staining of neutrophils by unlabeled polysaccharides; assay type: binding; details: compared with soluble yeast MP β-glucan or SZP
T1 construct: endogenous in cells
Experimental: Neutrophils were incubated at 4° C. with graded concentrations of β-glucans (SZP, laminarin, MP β-glucan, barley β-glucan, and lentinan), α-mannan or dextran for 15 minutes and then stained by addition of 1.0 mg/ml of SZP-FITC and incubated for an additional 15 minutes at 4° C. Percentage inhibition was then compared with polysaccharide concentration. […] Similar results were obtained when the same unlabeled polysaccharides were examined for inhibition of laminarin β-glucan-FITC staining. The rank order for inhibiting activity for both experiments was SZP>laminarin>MP β-glucan. However, CM β-glucan (carboxymethyl β-glucan from yeast), barley β-glucan, and lentinan inhibited laminarin-FITC staining more efficiently than they inhibited SZP-FITC staining.

[2] = tested on: human LAN-1 neuroblastoma; assay: Oral barley β-glucan with antibody against LAN-1 neuroblastoma xenograft (FIG. 10); assay type: in vivo, athymic BALB/c mice; details: β-glucan daily by gavage for 21-29 days; 3F8 i.v. twice weekly
Experimental: Neuroblastoma cells were xenografted subcutaneously in athymic BALB/c mice. Treatment started in groups of 5 mice, 2 weeks after tumor implantation when visible tumors reached 0.7-0.8 cm in diameter. The β-glucan groups was treated with […] daily by gavage for a total of 21-29 days. Monoclonal antibodies (3F8) were administered i.v. at a dose of […] twice weekly. Tumor size was measured from the first day of treatment, and the product of the largest diameter was expressed as a percentage of the size on day zero.

CR3 [3] = biological target: T1, CR3; assay: Neutrophil fluorescence staining by FITC-labeled polysaccharides (flow cytometry); assay type: binding; details: neutrophils
From the text: Fluorescence intensity values obtained with individual polysaccharide-FITC conjugates cannot be compared, since the molar ratio of FITC to polysaccharide is likely to differ and cannot be readily calculated.

Human NK cells = assay: β-glucan and CR3-dependent stimulation of NK cell cytokine secretion, ELISA (FIG. 13); assay type: cell-based; details: 18 hours at 37° C.; particulate yeast β-glucan and grifolan 2 g/ml, MP β-glucan and SZP 2.0 μg/ml
Experimental: The function of NK cells in mediating host defense includes both direct cytotoxicity of tumor cells and the secretion of cytokines such as TNF-α and IFN-γ that can potentially regulate immune responses and recruit tumoricidal macrophages. […] Human NK cells were cultured with either particulate yeast β-glucan or soluble CR3-binding polysaccharides for 18 hours at 37° C. Culture supernatants were then analyzed for TNF-α by ELISA. […] Anti-CR3 blocks both β-glucan binding to CR3, as well as the binding of primed CR3 to iC3b on the EC3bi target cells.

[4] = tested on: advanced low-grade or slow-growing NHL; details: patients who completed treatment; cited from earlier work
MMT mammary carcinoma = assay: β-glucan therapy of MMT mammary carcinoma in normal and C3-deficient 129/J mice (FIG. 8); assay type: in vivo; details: daily i.v. therapy
From the text: The requirement for C3 in β-glucan therapy was confirmed in experiments with C3-deficient 129/J mice implanted with the MMT mammary carcinoma. Twelve normal (C3+/+) and 12 C3-deficient (C3−/−) 129/J mice were implanted with the MMT mammary carcinoma tumor cell line and palpable tumors were allowed to form before beginning daily i.v. therapy of groups of 6 mice each with PBS or β-glucan. A similar protocol was used with normal (CD+/+) and CR3-deficient (CD11b-knockout; Cd11b−/−) BALB/c mice implanted with Ptas64 mammary tumors.

EL-4 lymphoma = assay: mAb and/or β-glucan therapy of hepatic EL-4 lymphoma (FIG. 9, FIG. 15); assay type: in vivo, C57B1/6 mice; details: therapy from day 10 for 2 weeks; SZP β-glucan 100 μl of 4 mg/ml i.v. daily; 3F8 100 μl of 2 mg/ml i.v. every 3rd day
Experimental: Mice were injected with the EL-4 cells i.v., a protocol known to result in liver metastases. Ten days later, the mice were given daily i.v. doses of β-glucan alone, 3F8 mAb to GD2 ganglioside (a prominent tumor antigen of EL-4 cells), or 3-glucan plus 3F8 mAb. The 3F8 mAb is IgG3 and is a potent activator of complement and also mediates ADCC. […] As expected, the β-glucan had little effect on its own since the tumors bore little or no iC3b.
The C57B1/6 lymphoma EL-4, that highly expresses membrane GD2 ganglioside, was provided by Dr. Nai-Kong V. Cheung. Normal C57B1/6 mice were injected with 3×10^5 EL-4 cells i.v. to generate liver tumors (Zhang, H., et al., Cancer Res., 58: 2844-2849 (1998)). Ten days later, 4 groups of 6 mice were given i.v. 100 μl doses of: a) PBS (control group), b) SZP β-glucan (4 mg/ml) repeated daily, c) 3F8 mAb to GD2 ganglioside (2 mg/ml) repeated every 3rd day, or d) both daily β-glucan and 3F8 mAb every 3rd day. After 2 weeks of therapy, the mice were sacrificed and their livers were removed and weighed in comparison to the livers of a group of normal tumor-free mice. The net weight of liver tumors was calculated by subtracting the weight of a normal liver (1.0 g) from the weights of the livers from tumor-bearing mice. […]

RMA-S lymphoma = assay: Survival of mice with RMA-S hepatic lymphomas treated with 14.G2a and/or β-glucan (FIG. 16); assay type: in vivo, C57B1/6 mice; details: therapy from day 5 for 3 weeks
Experimental: The C57B1/6 lymphoma EL-4, that highly expresses membrane GD2 ganglioside, was provided by Dr. Nai-Kong V. Cheung. Normal C57B1/6 mice were injected with 3×10^5 EL-4 cells i.v. to generate liver tumors (Zhang, H., et al., Cancer Res., 58: 2844-2849 (1998)). Ten days later, 4 groups of 6 mice were given i.v. 100 μl doses of: a) PBS (control group), b) SZP β-glucan (4 mg/ml) repeated daily, c) 3F8 mAb to GD2 ganglioside (2 mg/ml) repeated every 3rd day, or d) both daily β-glucan and 3F8 mAb every 3rd day. After 2 weeks of therapy, the mice were sacrificed and their livers were removed and weighed in comparison to the livers of a group of normal tumor-free mice. The net weight of liver tumors was calculated by subtracting the weight of a normal liver (1.0 g) from the weights of the livers from tumor-bearing mice. A similar liver tumor model was carried out using the C57B1/6 lymphoma RMA-S that similarly expresses GD2 ganglioside but is defective in peptide loading of MHC class I (kindly provided by Dr. Olivera J. Finn, Pittsburgh Cancer Institute, Pittsburgh, Pa.) in combination with 14.G2a mAb to GD2 ganglioside (100 μg, given i.v. every 3rd day). Mice were similarly divided into 4 groups that were treated beginning 5 days after i.v. injection of 3×10^5 cells with: 1) i.v. PBS (control), 2) i.v. NSG β-glucan (400 μg per day), 3) 14.G2a mAb, or 4) both NSG β-glucan and 14.G2a mAb. […]

RMA-S-MUC1 tumor cells [5] = assay: s.c. RMA-S-MUC1 tumor therapy with 14.G2a or BCP8 mAb and/or NSG β-glucan (FIG. 17B-C, 18B-C); assay type: in vivo, C57B1/6 mice; details: 2-week therapy, observed for a 4-month period
Experimental: Three different tumor therapy protocols are shown. FIG. 17A is a graph showing Pta64 therapy with 11CI anti-MMTV mAb combined with glucan. FIG. 17B is a graph showing RMA-S-MUC1 therapy with i.v. 14 G2a anti-GD2 mab combined with glucan. FIG. 17C is a graph showing RMA-S-MUC1 therapy with i.v. BCP8 anti-MUC1 mab combined with glucan. After tumor cells were implanted, small tumors were allowed to form over 5-9 days before immunotherapy was carried out for a total period of 14 days. […] In graphs B and C, C57B1/6 mice were implanted s.c. with RMA-S-MUC1 tumor cells and then 5 days later treated with either 14.G2a anti-GD2 ganglioside and/or NSG β-glucan (300 μg per day) or BCP8 IgG2b […] and/or NSG β-glucan ([…] per day). […] Mean values and standard errors (SE) of the mean are shown.
(§1) RMA-S cells transfected with human MUC1 were also provided by Dr. Finn (Soares, M. M., et al., J. Immunol., 166: 6555-6563 (2001)), and 1×10^6 cell were implanted s.c. in C57B1/6 mice in or near a mammary fat pad. […]

RMA-S-MUC1 tumor cells [6] = assay: s.c. RMA-S-MUC1 tumor therapy in CR3-deficient versus wild-type mice (FIG. 19, 20); assay type: in vivo, C57B1/6 mice
Experimental: FIGS. 19A-19B are graphs showing the enhancement of tumor regression mediated by NSG β-glucan requires leukocyte CR3 and fails in CR3-deficient (CD11b^−/−) mice. FIG. 19A is a graph showing the tumor diameter vs. therapy of wild type mice. FIG. 19B is a graph showing the tumor diameter vs. therapy of CR3 deficient mice. […] Tumor measurements were made at the indicated times (FIGS. 19A-19B) and then survival was monitored (FIGS. 20A-20B). Mice received 14.G2a anti-GD2 ganglioside mAb (100 μg every 3rd day) and/or NSG β-glucan (400 μg daily). There was no difference in the rate of tumor regression produced by mAb therapy alone in the CR3-deficient versus wild-type mice and there was no β-glucan enhancement of mAb-mediated tumor regression in the CR3-deficient mice. […] Mean values±SE of the mean are shown.
as §1

[7] = tested on: Lewis Lung carcinoma tumor cells transfected with human MUC1 (LL/2-MUC1); assay: s.c. LL/2-MUC1 Lewis lung carcinoma therapy in C3-deficient versus wild-type mice (FIG. 21, 22); assay type: in vivo, C57B1/6 mice
Experimental: C3-deficient (C3^−/−) mice and their wild-type littermates on a C57BL/6 background were implanted s.c. with 1×10^6 Lewis Lung carcinoma tumor cells transfected with human MUC1 (LL/2-MUC1). After allowing 7 days for development of small tumors, mice were treated with BCP8 IgG2b anti-MUC1 mAb (200 μg every 3rd day) and/or NSG β-glucan (400 μg daily) for a total therapy period of 3 weeks. […] Mean values±SE of the mean are shown.
Lewis lung carcinoma cells (LL/2, CRL-1642) originally derived from C57B1/6 mice were obtained from the ATCC and transfected with a plasmid containing cDNA for human MUC1 that was provided by Dr. Olivera Finn (Soares, M. M., et al., J. Immunol., 166: 6555-6563, 2001.). A LL/2 line expressing a uniformly high surface density of MUC1 was selected by FACS sorting of cells stained with BCP8-FITC mAb (MoFlo High Speed Cell Sorter, Dako-Cytomation, Fort Collins, Colo.). A further selection was made by passaging the cell line two times in C57B1/6 mice given the cells s.c. A tumor line was selected that both expressed uniformly high levels of surface MUC1 and was capable of generating s.c. tumors in C57B1/6 injected with as few as 5×10^5 cells. Therapy of mice bearing these s.c. tumors was initiated after 7 days when tumors were only 1-2 mm in diameter. Four groups of six C3-deficient or their wild-type littermate C57B1/6 mice were treated with: a) i.v. PBS every 3rd day (control); b) 400 μg of NSG β-glucan given i.v. daily; c) 200 μg of BCP8 anti-MUC1 mAb given i.v. every 3rd day; d) combined therapy with BCP8 mAb and NSG β-glucan. Therapy was given for 3 weeks with measurement of tumor diameters every 3rd day, and mice were sacrificed when tumors reached 15 mm diameter. Mice were observed over a total period of 90 days for tumor-free survival.

[8] = tested on: iC3b-opsonized breast tumor cells; assay: β-glucan priming of murine neutrophil CR3 for cytotoxicity (FIG. 4); assay type: cell-based; details: normal murine neutrophils
Experimental: The effect of β glucan priming of murine neutrophil CR3 on subsequent cytotoxic triggering by iC3b-opsonized breast tumor cells is shown in FIG. 4. […] This activity disappears, however, when antibody to the CD11b (murineCR3 equivalent) is added, interfering with the receptor's ability to bind to iC3b. […] Adding antibody against CD11b had little effect on CD11b-deficient neutrophils, as expected.

- affinity for CR3 (in words) (CR3 [1]): relatively low affinity for CR3
Substance: (1,3),(1,4)-β-D-glucan [barley β-glucan]
- tumor growth (tumor size as percentage of day zero), in words [2]: neither β-glucan or mAb alone showed much effect

- Polysaccharide-FITC Concentration Required for Maximum Specific Fluorescence Staining (Saturation of Receptor Binding Sites) (CR3 [3]): No specific staining
- Specific Fluorescence Mean Channel at Saturation (Total-Nonspecific Fluorescence Obtained in the Presence of Excess of Unlabeled Polysaccharide) (CR3 [3]): 0
Substance: Dextran-FITC

Substance: grifolan
- NK cell cytokine secretion in the absence of target cells, in words (Human NK cells): secretion of both TNF-α and IL-6

Substance: rituximab: monoclonal antibody used to treat a type of non-Hodkin's lymphoma
- patients having complete remission [4]: 6%
- patients whose tumors shrunk by at least one half [4]: 48%

Substance: β-glucan
- tumor reduction (MMT mammary carcinoma; C3-deficient (C3−/−) 129/J mice): no significant tumor reduction
- tumor reduction (MMT mammary carcinoma; normal (C3+/+) 129/J mice): 79%
- reduction in liver tumor net weight compared to untreated controls (EL-4 lymphoma): 25.6%
- survival, in words (RMA-S lymphoma): no therapeutic benefit
- survival (RMA-S-MUC1 tumor cells [5]): 20%
- tumor regression, in words (RMA-S-MUC1 tumor cells [6]; CR3-deficient mice): no regression
- mice remaining tumor-free (survival) (RMA-S-MUC1 tumor cells [6]; wild-type mice, 14.G2a 100 μg every 3rd day, NSG β-glucan 400 μg daily, 21 days): no survivors
- regression and survival, in words ([7]; C3-deficient mice): neither mAb nor β-glucan, separately or combined, elicited any regression
- survival, in words ([7]; wild-type mice): survival advantage compared to mAb alone
- tumor regression, in words ([7]; wild-type mice, BCP8 200 μg every 3rd day, NSG β-glucan 400 μg daily, 3 weeks): lower level of regression
- cytotoxicity towards iC3b-opsonized breast tumor cells, in words [8]: high level of cytotoxicity
